Results published in publication PMC6366420, “Design and synthesis of 4-piperazinyl quinoline derived urea/thioureas for anti-breast cancer activity by a hybrid pharmacophore approach” (Journal of Enzyme Inhibition and Medicinal Chemistry, 2019).
Where two headings read alike, the source gives them in different places.

What was measured:
[1] = system: breast cancer and non-cancer breast cell lines; test: SRB antiproliferative comparison of breast cancer and non-cancer breast cell lines; assay type: cell-based, human; details: for antigrowth effect against cancer versus non-cancer cells (in words): three breast cancer lines vs 184B5 and MCF10A
Protocol: (§1) The human breast cancer cell lines MDA-MB468, MDA-MB231 and MCF-7 were purchased from ATCC and maintained in RPMI 1640 medium supplemented with 10% fetal bovine serum (Hyclone, Logan UT) and 2 mM L-glutamine. MCF10A and 184B5 immortalised breast cells were purchased from ATCC and maintained in mammary epithelial basal medium supplemented with an MEGM mammary epithelial singlequot kit (Cambrex). Cells were grown at 37 °C with 5% CO2, 95% air under the humidified conditions. Cell line authentication was carried out by Genetica DNA Laboratories (Burlington, NC) using a short tandem repeat profiling method (March 2015; July 2015; September 2016).
(§2) Cell cytotoxic effects were determined by a SRB-based protocol[2]^,[25].
(§3) The newly synthesised 4-piperazinylquinoline compounds (5–30) were evaluated for their antiproliferative effects using three breast cancer cell lines, for which the compounds were diluted to achieve seven different concentrations ranging from […]. Followed by 48 h incubation with the compound, cells were treated with sulforhodamine B (SRB) to measure their growth/viability (% of the untreated control) by spectrophotometer. The total cellular macromolecules levels known to accurately reflect by UV reading of SRB staining. […] The reference compounds CQ and cisplatin were included for the comparison.
(§4) We further assessed their antiproliferative effects on two non-cancer immortalised cell lines (184B5 and MCF10A). […] The antiproliferative effects of compound 23 on cancer cells are thus 7-fold (MDA-MB468 vs MCF10A) to 11-fold (MDA-MB231 vs 184B5) higher than matching non-cancer breast cells, which may indicate that compound 23 could potentially be safer than other compounds. Therefore, we examined it further to gain insights into its molecular mechanism of action.

MDA-MB468 = test: SRB antiproliferative assay, MDA-MB468; assay type: cell-based, human; details: SRB, 48 h incubation, MDA-MB468 breast cancer cells, read-out: GI50 MDA-MB468
Protocol: as §1, §2, §3

184B5 = test: SRB antiproliferative assay, 184B5 non-cancer breast cells; assay type: cell-based, human; details: Homo sapiens; SRB, 48 h incubation, 184B5 non-cancer immortalised breast cells; read-out: GI50 184B5
Protocol: as §1, §2, §3, §4

MCF10A = test: SRB antiproliferative assay, MCF10A non-cancer breast cells; assay type: cell-based, human; details: Homo sapiens, MCF-10A; SRB, 48 h incubation, MCF10A non-cancer immortalised breast cells; read-out: GI50 MCF10A
Protocol: as §1, §2, §3, §4

MDA-MB231 = test: SRB antiproliferative assay, MDA-MB231; assay type: cell-based, human; details: SRB, 48 h incubation, MDA-MB231 triple-negative breast cancer cells, read-out: GI50 MDA-MB231
Protocol: as §1, §2, §3

MCF7 = test: SRB antiproliferative assay, MCF7; assay type: cell-based, human; details: Homo sapiens; SRB, 48 h incubation, MCF7 breast cancer cells; read-out: GI50 MCF7
Protocol: as §1, §2, §3

MCF7 cells = test: Mitochondrial (MitoTracker) and lysosomal (LysoTracker) staining of MCF7 cells; assay type: cell-based, human
Protocol: (§5) Lysosomal and AO staining were carried out as described previously. Mitochondrial staining with MitoTracker was carried out as described previously. Briefly, cells were plated on a poly-D-lysine pre-coated 1.8-cm sterile glass coverslip that had been placed in a well of a 6-well clustered dish. Cells were then incubated with 50 nM MitoTracker Red (ThermoFisher) for 30 min in a cell culture incubator. Plasma membrane staining was carried out with lipid-specific CellMask (Molecular probes, Life Technologies), according to the manufacturer’s instruction. For actin staining, cells fixed with 4% formaldehyde were incubated with phalloidin conjugated with Fitc (green) for 30 min. For nuclear staining, cells were incubated with 5 µM of DRAQ5 (blue) for 5 min.
It should be noted that these abnormalities could occur if the membranes of these organelles are compromised. Thus, the molecular target of compound 23 is likely a common element found in the membranes of cytoplasm, mitochondria and lysosomes, but not in the nuclear membrane as it is not compromised in the presence of compound 23 (Figures 4–6).
Figure 5. Mitochondrial membrane may be compromised in the presence of compound 23. […] (b) Mitochondria are aggregated and disorganized in the presence of compound 23. MCF7 mitochondria and nuclei were stained with MitoTracker and DRAQ5, respectively, as descried in Materials and methods.
Figure 6. […]

MCF7 breast cancer cells = test: Plasma membrane integrity staining (EtBr, AO, CellMask) of MCF7 cells; assay type: cell-based, human
Protocol: as §5
However, it is currently unclear how lipid molecules are found throughout the entire cytoplasm. […] In addition, cells treated with compound 23 are often enlarged and flattened, and contained multi-nuclei. In addition, many small vacuoles are found in the cytoplasm of these cells (Figure 4(a–c)). All of these phenomena are likely leading to eventual cancer cell demise in the presence of compound 23.
Figure 4. […] (a) MCF7 cell morphology changes in the presence of compound 23. MCF7 cells were sham treated or treated with compound 23 for 48 h, followed by staining with either EtBr. […]

Row | Structure (SMILES) | melting point [°C] | GI50 (MDA-MB468; Homo sapiens, MDA-MB-468, 48 h) [µM] | GI50 (MDA-MB231; Homo sapiens, MDA-MB-231, 48 h) [µM] | GI50 (MCF7) [µM] | GI50 (MDA-MB468) [µM] | GI50 (MDA-MB231) [µM] | antigrowth effect against cancer versus non-cancer cells (in words) [1] | GI50 (184B5) [µM] | GI50 (MCF10A) [µM] | antiproliferative effect on cancer cells higher than matching non-cancer breast cells ([1]; MDA-MB231 vs 184B5) [fold] | antiproliferative effect on cancer cells higher than matching non-cancer breast cells ([1]; MDA-MB468 vs MCF10A) [fold] | higher activity than the reference compounds cisplatin and CQ ([1]; breast cancer cell lines, GI50 comparison) | antigrowth/cell-killing activity higher on cancer than non-cancer cells ([1]; overall range, cancer vs non-cancer breast cells) | mitochondrial and lysosomal volumes (in words) (MCF7 cells) | cells showing compromised plasma membrane phenotypes (MCF7 breast cancer cells; MCF7, of 500 cells examined, 24-h post treatment) [%] | ethidium bromide uptake / plasma membrane integrity (in words) (MCF7 breast cancer cells; MCF7 cells, treated 48 h, vs Sham control)
1 | Cc1cccc(C)c1NC(=S)N1CCN(c2ccnc3cc(Cl)ccc23)CC1 [Compound 18, 4-(7-Chloro-quinolin-4-yl)-piperazine-1-carbothioic acid (2,6-dimethyl-phenyl)-amide] | 138 to 139 | 7.8 ± 0.8 | 9.6 ± 0.5 | 7.3 ± 0.5 |  |  | much stronger activities against cancer than non-cancer cells | 16.7 ± 1 | 52.3 ± 2.9 |  |  |  |  |  |  | 
2 | O=C(Nc1cccc2ccccc12)N1CCN(c2ccnc3cc(C(F)(F)F)ccc23)CC1 [Compound 15, 4-(7-Trifluoromethyl-quinolin-4-yl)-piperazine-1-carboxylic acid naphthalen-1-ylamide] | 127 to 128 | 9.6 ± 0.9 | 17.8 ± 1 | 7.5 ± 0.6 |  |  | comparable against cancer and non-cancer cells | 27.9 ± 1.7 | 11.1 ± 0.9 |  |  |  |  |  |  | 
3 | O=C(Nc1ccccc1)N1CCN(c2ccnc3cc(C(F)(F)F)ccc23)CC1 [Compound 11, 4-(7-Trifluoromethyl-quinolin-4-yl)-piperazine-1-carboxylic acid phenylamide] | 146 to 147 | 57.6 ± 3.2 | 20.6 ± 1.4 | 11 ± 0.6 |  |  | comparable against cancer and non-cancer cells | 12.2 ± 1.3 | 21.1 ± 1.6 |  |  |  |  |  |  | 
4 | O=C(Nc1c(Cl)cc(Cl)cc1Cl)N1CCN(c2ccnc3cc(Cl)ccc23)CC1 [Compound 8, 4-(7-Chloro-quinolin-4-yl)-piperazine-1-carboxylic acid (2,4,6-trichloro-phenyl)-amide] | 168 to 169 | 30.4 ± 2 | 29.1 ± 1.7 | 23.7 ± 2.4 |  |  | comparable against cancer and non-cancer cells | 22.3 ± 1.7 | 23.7 ± 1 |  |  |  |  |  |  | 
5 | O=C(NC1CCCCC1)N1CCN(c2ccnc3cc(Cl)ccc23)CC1 [Compound 10, 4-(7-Chloro-quinolin-4-yl)-piperazine-1-carboxylic acid cyclohexylamide] | 112 to 113 | 10.9 ± 0.8 | 20.8 ± 1.3 | 6 ± 0.5 |  |  | comparable against cancer and non-cancer cells | 16.3 ± 1 | 15.7 ± 1.3 |  |  |  |  |  |  | 
6 | Cc1ccc(C)c(NC(=O)N2CCN(c3ccnc4cc(C(F)(F)F)ccc34)CC2)c1 [Compound 12, 4-(7-Trifluoromethyl-quinolin-4-yl)-piperazine-1-carboxylic acid (2,5-dimethyl-phenyl)-amide] | 108 to 109 | 21.7 ± 1 | 39.6 ± 2.1 | 22.5 ± 1.4 |  |  | higher activity against non-cancer cells than cancer cells | 7.6 ± 0.7 | 8.8 ± 0.9 |  |  |  |  |  |  | 
7 | Cc1ccc(C)c(NC(=O)N2CCN(c3ccnc4cc(Cl)ccc34)CC2)c1 [Compound 6, 4-(7-Chloro-quinolin-4-yl)-piperazine-1-carboxylic acid (2,5-dimethyl-phenyl)-amide] | 118 to 119 | 35.5 ± 1.3 | 50.6 ± 3.2 | 28.9 ± 1.4 |  |  | higher activity against non-cancer cells than cancer cells | 19.8 ± 1 | 18.8 ± 1.3 |  |  |  |  |  |  | 

More lines, main results first:

Row | melting point [°C] | GI50 (MDA-MB468; Homo sapiens, MDA-MB-468, 48 h) [µM] | GI50 (MDA-MB231; Homo sapiens, MDA-MB-231, 48 h) [µM] | GI50 (MCF7) [µM] | GI50 (MDA-MB468) [µM] | GI50 (MDA-MB231) [µM] | Structure (SMILES) | antigrowth effect against cancer versus non-cancer cells (in words) [1] | GI50 (184B5) [µM] | GI50 (MCF10A) [µM] | antiproliferative effect on cancer cells higher than matching non-cancer breast cells ([1]; MDA-MB231 vs 184B5) [fold] | antiproliferative effect on cancer cells higher than matching non-cancer breast cells ([1]; MDA-MB468 vs MCF10A) [fold] | higher activity than the reference compounds cisplatin and CQ ([1]; breast cancer cell lines, GI50 comparison) | antigrowth/cell-killing activity higher on cancer than non-cancer cells ([1]; overall range, cancer vs non-cancer breast cells) | mitochondrial and lysosomal volumes (in words) (MCF7 cells) | cells showing compromised plasma membrane phenotypes (MCF7 breast cancer cells; MCF7, of 500 cells examined, 24-h post treatment) [%] | ethidium bromide uptake / plasma membrane integrity (in words) (MCF7 breast cancer cells; MCF7 cells, treated 48 h, vs Sham control)
8 | 145 to 146 | 33.1 ± 1.5 | 22.6 ± 1.4 | 20.4 ± 0.9 |  |  | S=C(Nc1ccc(Cl)cc1)N1CCN(c2ccnc3cc(Cl)ccc23)CC1 [Compound 20, 4-(7-Chloro-quinolin-4-yl)-piperazine-1-carbothioic acid (4-chloro-phenyl)-amide] | higher activity against non-cancer cells than cancer cells | 14.4 ± 0.6 | 8.8 ± 0.7 |  |  |  |  |  |  | 
9 | 123 to 124 | 23.4 ± 0.9 | 16.5 ± 1.2 | 3.8 ± 0.3 |  |  | FC(F)(F)c1ccc(NC(=S)N2CCN(c3ccnc4cc(C(F)(F)F)ccc34)CC2)cc1 [Compound 26, 4-(7-Trifluoromethyl-quinolin-4-yl)-piperazine-1-carbothioic acid (4-trifluoromethyl-phenyl)-amide] | comparable against cancer and non-cancer cells | 8.8 ± 0.6 | 10.7 ± 2 |  |  |  |  |  |  | 
10 | 105 to 106 | 13.3 ± 0.3 | 22.2 ± 1.7 | 5.2 ± 0.5 |  |  | Cc1cccc(C)c1NC(=S)N1CCN(c2ccnc3cc(C(F)(F)F)ccc23)CC1 [Compound 25, 4-(7-Trifluoromethyl-quinolin-4-yl)-piperazine-1-carbothioic acid (2,6-dimethyl-phenyl)-amide] | comparable against cancer and non-cancer cells | 21.4 ± 1.3 | 14.1 ± 1.5 |  |  |  |  |  |  | 
11 | 114 to 115 | 4.7 | 5.3 | 4.5 ± 0.1 | 4.6 ± 0.6 | 3 ± 0.1 | S=C(NCCN1CCOCC1)N1CCN(c2ccnc3cc(Cl)ccc23)CC1 [Compound 23, 4-(7-Chloro-quinolin-4-yl)-piperazine-1-carbothioic acid (2-morpholin-4-yl-ethyl)-amide] | much stronger activities against cancer than non-cancer cells | 34.4 ± 0.6 | 32.3 ± 0.8 | 11 | 7 | 4-8 fold | 7-11 fold | substantial increases in mitochondrial and lysosomal volumes | 42.4 ± 4.8 | readily uptake ethidium bromide
12 | 187 to 188 | 14.1 ± 0.9 | 13.8 ± 0.8 | 7.5 ± 0.6 |  |  | FC(F)(F)c1ccc2c(N3CCN(C(=S)Nc4ccccc4)CC3)ccnc2c1 [Compound 24, 4-(7-Trifluoromethyl-quinolin-4-yl)-piperazine-1-carbothioic acid phenylamide] | much stronger activities against cancer than non-cancer cells | 24.4 ± 2 | 34.2 ± 1.3 |  |  |  |  |  |  | 
